For assay [1], the system named is hematopoietic stem cells (HSC) and progenitors in peripheral blood. The settings on record: previous reports (Bonig 2009; Broxmeyer 2005); cited from earlier work.
Assay [2] has the same test system. How it is done: Briefly, mice were injected IP with 200 mg/kg of Cytoxan in HBSS (Sigma-Aldrich) on day −1, followed by 2 or 4 sequential daily sub-cutaneous injections of […] rhG-CSF (Humanzyme, Chicago, Ill.). Tissues were analyzed on day 2 or 4, as indicated (FIGS. 3A, 4A). A cohort from each group was injected IV with 5 mg/kg of AMD3100 1 hour prior to sacrifice. For AMD3100 alone, mice were treated with two serial AMD3100 (5 mg/kg) IV injections one hour apart. Peripheral blood, spleen, and bone marrow were isolated one hour later and processed for cell counts and flow cytometry analysis to determine the numbers and frequencies of each cell population.

In assay [3] the test system is BM cell (HSC, T cell) migration toward Sdf1. The assay is described as follows: Modified Boyden (transwell) migration assay. It counts as cell-based, mice. How it is done:
BM cells (lineage depleted by magnetic selection, when appropriate), were preincubated at 37° C. for one hour, then placed in the upper chamber of a transwell insert (5 μm pore size). Bottom and/or top wells contained Sdf1 (100 ng/ml) and/or Slit2, as indicated. Cells were allowed to migrate for 2 hrs at 37° C. before harvesting and analysis by flow cytometry.

Assay [4] concerns HSC localization to the BM. As to conditions: three hours post-injection. How it is done:
BM cells were labeled with CFSE labeling dye (Invitrogen) for 5 minutes at ambient temperature, followed by antibody labeling and isolation of cKit^+/Lin^−/Sca1^+/CFSE^hi cells by two rounds of FACS. Sorted cells were split in two equal parts and incubated with or without AMD3100 ([…]) on ice for 30 minutes. Cells were washed, pelleted by centrifugation, and resuspended in HBSS at 400,000 cells/ml. Hosts, lethally irradiated 24 hours prior to transplantation, were injected IV with 40,000 cells in 100 μI. Three hours post-transplant, tissues were harvested from individual mice and analyzed for CFSE labeled cells by flow cytometry. Total cell numbers were counted using a Beckman Coulter Cell Counter.

The test system of another assay is wt HSC. The assay is described as follows: In vitro proliferation of HSC. The format is cell-based, mice. The settings on record: Slit2 4 ug/ml, FIG. 9E. How it is done:
HSC and MPP were isolated and sorted from Robo4^−/− and wt mice as previously described. 90-200 cells were plated per well of either strain into a 96-well U-bottom tissue culture plate and cultured for up to 10 days in IMEM medium (Fisher) supplemented with 10% FBS, 25 ng/ml of IL-11, 25 ng/ml of GM-CSF, 25 ng/ml of SCF, 10 ng/ml IL-3 (Cytokines from Peprotech) and Primocin (Invivogen). On days 3, 5, 7, and 10 FITC-labeled spherobeads (BD Bioscience) were added and triplicate samples were analyzed using a FACSAria. Cell expansion rates were calculated based on the number of beads recovered per 10,000 beads added per well.

A further assay deals with HL60 cells. The assay is described as follows: HL60 cell migration toward fMLP. As to conditions: Slit2, FIG. 11C. It counts as cell-based. How it is done:
(A) Purified Sdf1 (100 ng/ml) with and without Slit2 (250 or 500 ng/ml) was placed in bottom wells and the migration of lineage-depleted BM cells after a 2-hour incubation period were quantitated by flow cytometry. […] (B) Slit2 had no effect on T cell migration by itself (black bars) or in combination with Sdf1 (purple bars) in vitro. Experiment performed as in A, except unfractionated BM cells were placed in top wells. (C) Slit2 attenuated HL60 cell migration toward fMLP. Data shown are representative of at least two (C) or three (A and B) independent experiments. Error bars represent SEM. *p<0.03.

Regarding `c1cc(CN2CCCNCCNCCCNCC2)ccc1CN1CCCNCCNCCCNCC1` [AMD3100], the “HSC numbers increase (long-term reconstitution capability of PB cells upon AMD3100 mobilization)” value in assay [1] is reported as 1.5-8 fold. The “efficiency of AMD3100-induced HSC mobilization in Robo4−/− mice compared to wt mice” value in assay [2] (FIG. 4E) was “much greater”. The “progenitor cell numbers in the blood” value in assay [2] (one hour after two sequential AMD3100 injections, wt mice) is “increased robustly”. Besides, the “circulating HSC” value in assay [2] (one hour after two sequential AMD3100 injections, wt mice, FIG. 4D) is on record as “surprisingly few”. For the same molecule, the “increase in PB HSC” value in assay [2] (wt mice, AMD3100 mobilization, FIG. 4D) was roughly 1.5 fold. Further, the “cell migration toward Sdf1 after preincubation with AMD3100” value in assay [3] (increasing amounts of AMD3100, FIG. 6A) is given as “dose-dependent decrease”. In assay [3] (preincubation with AMD3100, FIG. 6A), the “concentration giving complete inhibition of HSC migration toward Sdf1” value is 25 µM. Besides, in assay [4] (AMD3100 preincubation of wt cells, FIG. 6B), the “reduction in donor cells localizing to the BM” value is on record as roughly 2 fold. Moreover, in assay [4] (FIG. 6B), the “BM localization of Robo4-deficient cells treated with AMD3100” value is recorded as “further decrease in BM localization”. Moreover, the “donor cells in the blood stream” value in assay [4] (FIG. 6C) was “reciprocal increase”. In addition, the “localization to the spleen” value in assay [4] (FIG. 6D) was “no differences”.

B1: Slit2: the Robo ligand Slit2, a large secreted protein (protein, UniProt O94813 31-1529, looked up)
Slit homolog 2 protein: QCSCSGSTVDCHGLALRSVPRNIPRNTERLDLNGNNITRITKTDFAGLRHLRVLQLMENKISTIERGAFQDLKELERLRLNRNHLQLFPELLFLGTAKLYRLDLSENQIQAIPRKAFRGAVDIKNLQLDYNQISCIEDGAFRALRDLEVLTLNNNNITRLSVASFNHMPKLRTFRLHSNNLYCDCHLAWLSDWLRQRPRVGLYTQCMGPSHLRGHNVAEVQKREFVCSGHQSFMAPSCSVLHCPAACTCSNNIVDCRGKGLTEIPTNLPETITEIRLEQNTIKVIPPGAFSPYKKLRRIDLSNNQISELAPDAFQGLRSLNSLVLYGNKITELPKSLFEGLFSLQLLLLNANKINCLRVDAFQDLHNLNLLSLYDNKLQTIAKGTFSPLRAIQTMHLAQNPFICDCHLKWLADYLHTNPIETSGARCTSPRRLANKRIGQIKSKKFRCSAKEQYFIPGTEDYRSKLSGDCFADLACPEKCRCEGTTVDCSNQKLNKIPEHIPQYTAELRLNNNEFTVLEATGIFKKLPQLRKINFSNNKITDIEEGAFEGASGVNEILLTSNRLENVQHKMFKGLESLKTLMLRSNRITCVGNDSFIGLSSVRLLSLYDNQITTVAPGAFDTLHSLSTLNLLANPFNCNCYLAWLGEWLRKKRIVTGNPRCQKPYFLKEIPIQDVAIQDFTCDDGNDDNSCSPLSRCPTECTCLDTVVRCSNKGLKVLPKGIPRDVTELYLDGNQFTLVPKELSNYKHLTLIDLSNNRISTLSNQSFSNMTQLLTLILSYNRLRCIPPRTFDGLKSLRLLSLHGNDISVVPEGAFNDLSALSHLAIGANPLYCDCNMQWLSDWVKSEYKEPGIARCAGPGEMADKLLLTTPSKKFTCQGPVDVNILAKCNPCLSNPCKNDGTCNSDPVDFYRCTCPYGFKGQDCDVPIHACISNPCKHGGTCHLKEGEEDGFWCICADGFEGENCEVNVDDCEDNDCENNSTCVDGINNYTCLCPPEYTGELCEEKLDFCAQDLNPCQHDSKCILTPKGFKCDCTPGYVGEHCDIDFDDCQDNKCKNGAHCTDAVNGYTCICPEGYSGLFCEFSPPMVLPRTSPCDNFDCQNGAQCIVRINEPICQCLPGYQGEKCEKLVSVNFINKESYLQIPSAKVRPQTNITLQIATDEDSGILLYKGDKDHIAVELYRGRVRASYDTGSHPASAIYSVETINDGNFHIVELLALDQSLSLSVDGGNPKIITNLSKQSTLNFDSPLYVGGMPGKSNVASLRQAPGQNGTSFHGCIRNLYINSELQDFQKVPMQTGILPGCEPCHKKVCAHGTCQPSSQAGFTCECQEGWMGPLCDQRTNDPCLGNKCVHGTCLPINAFSYSCKCLEGHGGVLCDEEEDLFNPCQAIKCKHGKCRLSGLGQPYCECSSGYTGDSCDREISCRGERIRDYYQKQQGYAACQTTKKVSRLECRGGCAGGQCCGPLRSKRRKYSFECTDGSSFVDEVEKVVKCGCTRCVS
As to B1, in the assay with wt HSC, the “in vitro proliferation rates of wt HSC” value is “did not affect”. In addition, the “migration of CD4+T cells toward Sdf1” value in assay [3] (Slit2, FIG. 11B) is on record as “not affected”. For the same molecule, the “HSC migration toward Slit2” value in assay [3] (data not shown) is “did not detect”. For the same molecule, in assay [3] (lineage-depleted BM cells, Sdf1 100 ng/ml, Slit2 250 or 500 ng/ml, 2-hour incubation, FIG. 11A), the “cell migration toward Sdf1 with Slit2 added” value is reported as “No significant differences”. For the same molecule, in the assay on HL60 cells, the “HL60 cell migration toward fMLP” value was “inhibition”.

The record behind these values is patent US20150366943A1, “MOBILIZATION OF HEMATOPOIETIC STEM CELLS FROM BONE MARROW TO BLOOD USING A COMBINATION OF A ROBO4 RECEPTOR ANTAGONIST AND A CXCR4 ANTAGONIST OR hrVEGF-165 AND A CXCR4 ANTAGONIST” (The Regents of the University of California, priority 2012, published 2015).
